Results on one molecule are retold here after paper PMC7822819, “Discovery of a new class of integrin antibodies for fibrosis” (Scientific Reports, 2021).

SMILES strings stand for the structures. Read-outs that look alike come from different tables or passages of the source.

One experiment addresses T1, CHOK1-mαvβ3 cells (Mus musculus, UniProt O54890+P43406).
T1 construct: expressed in transfected cells
In words: Cell adhesion assay (Epic) on vitronectin. Format: cell-based. Conditions: vitronectin matrix; in words. The procedure: (§1) For plate preparation, Epic 384-well assay plates (Corning #5040) were washed with OptiMEM (Gibco #31985-070) and coated with murine fibronectin (Abcam #ab92784) at a concentration of 0.1 μg/well for CHO-a5KO-mαvβ1 cells; murine vitronectin (Abcam #ab92727) at 0.075 μg/well for CHO-mαvβ3 cells; or murine vitronectin at 0.125 μg/well for CHO-mαvβ5 (all at a volume of 25 μl/well in OptiMEM), for 1 h. Coating solution was then removed by flicking and plates were washed with OptiMEM and blocked with 25 μl/well of assay buffer [1% Ovalbumin (Sigma #A5503-10G) in OptiMEM containing 1X Pen-Strep (Gibco #15140-148)]. A 5-min baseline reading was taken on a Corning Epic Plate Reader (Model: Epic BT-157900) before removing the assay buffer and adding cells pre-incubated with inhibitors. The Epic plate reader detects cellular mass redistribution (adhesion) on the plate surface as a picometer wavelength shift over time. […] Cells were incubated with the inhibitors for 1 h at RT with gentle rocking, after which 50 μL per well was transferred to the Epic assay plate, and a time course of cell adhesion was monitored for an additional 3 h.

The target of another experiment is T2, CHOK1-mαvβ5 cells (Mus musculus, UniProt O70309+P43406).
T2 construct: expressed in transfected cells
The experiment is described as follows: Cell adhesion assay (Epic) on vitronectin. Conditions: vitronectin matrix; in words. Format: cell-based. The procedure:
as §1

Experiment [1] deals with diabetic nephropathy model. Also on record: method as in PMID 28971604. The conditions noted are these: cited from earlier work.
For the next experiment, the target named is human αvβ6 (Homo sapiens, UniProt P06756+P18564). In words: AlphaLISA integrin-ligand binding assay. Type of experiment: biochemical. Also on record: hαV 1 992; hβ6 1 709; made in house; host or cells: Expi293. Here is the method:
(§2) In the AlphaLISA integrin assays, we used a HEPES based buffer (25 mM HEPES pH 7.4, 137 mM NaCl, 1 mM MgCl2, 1 mM MnCl2, 2 mM CaCl2, 2.7 mM KCl, and 0.05% Tween-20). Optimal assay conditions were determined with a titration of the reagents for signal noise ratio (S/N), linear range, etc. For the respective integrins, we used the final concentrations described in Supplemental Table S3. Briefly, the testing antibody (8 μL) was added as a 4x (of Final testing concentration) solution in the HEPES buffer described previously into a 384w AlphaPlate (Perkin Elmer #6005350). Then the integrin and ligand were added sequentially as 8x (4 μL each). Plates were sealed and incubated at room temperature for 2 h. Then 4 × acceptor bead solution (8 μL) was added, and the plates were resealed and incubated at RT for 1 h. Finally, 4 × (8 μL) donor beads solution was added in a darkened room and incubated for 45 min at room temperature. Plates were read on the Envision (Perkin Elmer) in AlphaScreen mode within 3 h of donor bead addition.
(§3) Supplemental Table S3. integrin AlphaLIS A assay reagents and conditions Human A l phal i sa Inte gri n A ssays: Fi nal Condi ti ons […]
(§4) ( batch de pe nde nt) anti body A l phaLi sa A cce ptor havb1 1. 4 nM 1. 0 nMα - Fi brone cti n human Fi brone cti n n/a A cce ptor be ads/ Pe rki n 10. 0 ug/ m 10. 0 ug/ m […]
(§5) havb3 3. 0 nM 10. […]

The target in another experiment is mouse αvβ1 (Mus musculus, UniProt P09055+P43406). In words: AlphaLISA integrin-ligand binding assay. Type of experiment: biochemical. Further details: mαV 1 988; m β1 1 728; made in house; host or cells: Expi293. The conditions noted are these: Fig. 4B; read-out: IC50 Mouse integrin AlphaLISA assays: mαvβ1. The procedure:
as §2, §3, §4, §5
In general terms: In Alpha technology, singlet oxygen from a donor bead excites a nearby acceptor bead.

human αvβ6, sequence (P06756 31-992): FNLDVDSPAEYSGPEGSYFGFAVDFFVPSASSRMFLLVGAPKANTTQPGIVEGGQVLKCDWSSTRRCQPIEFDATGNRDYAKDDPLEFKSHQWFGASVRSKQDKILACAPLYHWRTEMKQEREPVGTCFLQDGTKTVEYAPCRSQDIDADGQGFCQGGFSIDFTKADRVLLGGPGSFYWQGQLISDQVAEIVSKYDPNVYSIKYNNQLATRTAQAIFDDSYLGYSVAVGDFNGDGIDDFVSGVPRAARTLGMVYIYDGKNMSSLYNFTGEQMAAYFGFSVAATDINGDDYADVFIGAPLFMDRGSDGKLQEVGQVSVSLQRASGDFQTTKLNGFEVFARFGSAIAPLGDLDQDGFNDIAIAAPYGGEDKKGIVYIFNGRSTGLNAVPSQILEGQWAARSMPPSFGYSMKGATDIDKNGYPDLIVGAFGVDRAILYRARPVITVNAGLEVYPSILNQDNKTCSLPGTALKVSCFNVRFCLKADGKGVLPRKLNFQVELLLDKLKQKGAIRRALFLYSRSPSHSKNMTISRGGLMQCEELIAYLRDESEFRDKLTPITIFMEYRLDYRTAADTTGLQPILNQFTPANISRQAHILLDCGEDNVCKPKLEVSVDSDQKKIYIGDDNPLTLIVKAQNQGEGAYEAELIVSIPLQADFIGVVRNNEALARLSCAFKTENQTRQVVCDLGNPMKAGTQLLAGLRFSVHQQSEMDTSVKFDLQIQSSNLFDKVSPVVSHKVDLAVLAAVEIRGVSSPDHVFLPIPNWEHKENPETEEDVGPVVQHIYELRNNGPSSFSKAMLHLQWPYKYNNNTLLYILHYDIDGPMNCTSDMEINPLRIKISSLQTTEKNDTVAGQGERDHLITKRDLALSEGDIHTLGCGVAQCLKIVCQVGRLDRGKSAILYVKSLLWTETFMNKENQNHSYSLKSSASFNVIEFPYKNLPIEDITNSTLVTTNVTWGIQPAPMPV
human αvβ6, sequence (P18564 22-709): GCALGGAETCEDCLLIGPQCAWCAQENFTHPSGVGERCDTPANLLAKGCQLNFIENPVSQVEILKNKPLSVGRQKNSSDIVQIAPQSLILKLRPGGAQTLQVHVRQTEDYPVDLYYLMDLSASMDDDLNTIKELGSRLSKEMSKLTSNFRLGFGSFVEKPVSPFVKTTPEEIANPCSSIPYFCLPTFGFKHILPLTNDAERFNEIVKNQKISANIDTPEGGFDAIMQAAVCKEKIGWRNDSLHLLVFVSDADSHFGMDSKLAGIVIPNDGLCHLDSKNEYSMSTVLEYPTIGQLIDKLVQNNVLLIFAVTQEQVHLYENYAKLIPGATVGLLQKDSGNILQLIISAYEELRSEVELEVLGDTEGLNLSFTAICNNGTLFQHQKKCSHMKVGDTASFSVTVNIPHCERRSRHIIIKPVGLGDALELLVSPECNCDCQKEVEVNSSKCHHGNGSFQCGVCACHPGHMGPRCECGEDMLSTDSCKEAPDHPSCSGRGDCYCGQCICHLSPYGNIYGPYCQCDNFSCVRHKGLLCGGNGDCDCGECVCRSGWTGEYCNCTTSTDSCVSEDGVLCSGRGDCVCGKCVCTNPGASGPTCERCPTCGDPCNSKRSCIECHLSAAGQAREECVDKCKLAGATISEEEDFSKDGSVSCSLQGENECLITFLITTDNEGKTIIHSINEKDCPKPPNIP
mouse αvβ1, sequence (P43406 31-988): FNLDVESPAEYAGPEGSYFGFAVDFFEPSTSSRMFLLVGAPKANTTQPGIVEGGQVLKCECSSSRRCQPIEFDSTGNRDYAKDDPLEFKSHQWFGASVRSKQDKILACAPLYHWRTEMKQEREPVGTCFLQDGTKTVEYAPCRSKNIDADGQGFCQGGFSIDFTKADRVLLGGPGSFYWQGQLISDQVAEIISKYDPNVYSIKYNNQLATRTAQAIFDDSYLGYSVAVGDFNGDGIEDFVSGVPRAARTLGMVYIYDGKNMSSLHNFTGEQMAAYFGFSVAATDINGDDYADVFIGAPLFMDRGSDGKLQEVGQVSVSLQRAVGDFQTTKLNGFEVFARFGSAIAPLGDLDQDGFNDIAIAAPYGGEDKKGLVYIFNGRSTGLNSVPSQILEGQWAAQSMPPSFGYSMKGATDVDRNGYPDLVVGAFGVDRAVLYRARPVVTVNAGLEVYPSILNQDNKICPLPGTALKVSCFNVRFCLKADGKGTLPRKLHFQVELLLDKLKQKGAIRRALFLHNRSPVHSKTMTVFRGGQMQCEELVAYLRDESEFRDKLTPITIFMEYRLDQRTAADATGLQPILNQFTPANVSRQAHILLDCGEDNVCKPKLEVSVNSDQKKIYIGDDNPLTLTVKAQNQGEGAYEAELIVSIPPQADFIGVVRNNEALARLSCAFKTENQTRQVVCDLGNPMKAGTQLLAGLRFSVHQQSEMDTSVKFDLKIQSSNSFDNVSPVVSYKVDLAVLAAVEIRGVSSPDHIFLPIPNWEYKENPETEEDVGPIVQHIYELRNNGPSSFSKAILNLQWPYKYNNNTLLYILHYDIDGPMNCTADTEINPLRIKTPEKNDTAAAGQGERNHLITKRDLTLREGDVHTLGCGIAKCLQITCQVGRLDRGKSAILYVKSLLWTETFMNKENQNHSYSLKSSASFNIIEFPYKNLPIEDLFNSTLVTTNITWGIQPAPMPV
mouse αvβ1, sequence (P09055 21-728): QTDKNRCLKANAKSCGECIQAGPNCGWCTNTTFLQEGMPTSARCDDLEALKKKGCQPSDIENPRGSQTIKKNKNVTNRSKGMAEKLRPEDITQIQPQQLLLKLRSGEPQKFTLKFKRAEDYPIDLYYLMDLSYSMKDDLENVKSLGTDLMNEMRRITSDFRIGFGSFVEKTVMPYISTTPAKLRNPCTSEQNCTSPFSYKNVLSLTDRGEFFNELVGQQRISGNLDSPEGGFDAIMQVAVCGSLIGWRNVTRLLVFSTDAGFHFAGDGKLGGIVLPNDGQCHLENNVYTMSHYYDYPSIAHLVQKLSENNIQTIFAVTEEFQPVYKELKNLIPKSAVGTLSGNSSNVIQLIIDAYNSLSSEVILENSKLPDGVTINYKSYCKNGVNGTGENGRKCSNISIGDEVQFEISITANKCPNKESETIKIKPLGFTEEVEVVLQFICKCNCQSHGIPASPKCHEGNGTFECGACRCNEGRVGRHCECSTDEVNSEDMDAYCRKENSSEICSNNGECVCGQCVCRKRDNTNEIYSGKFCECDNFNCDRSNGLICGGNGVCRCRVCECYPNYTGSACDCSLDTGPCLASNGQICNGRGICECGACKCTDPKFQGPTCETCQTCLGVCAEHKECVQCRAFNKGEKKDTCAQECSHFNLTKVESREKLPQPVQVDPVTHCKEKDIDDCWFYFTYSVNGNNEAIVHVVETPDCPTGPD
T1 sequence (P43406 31-1044): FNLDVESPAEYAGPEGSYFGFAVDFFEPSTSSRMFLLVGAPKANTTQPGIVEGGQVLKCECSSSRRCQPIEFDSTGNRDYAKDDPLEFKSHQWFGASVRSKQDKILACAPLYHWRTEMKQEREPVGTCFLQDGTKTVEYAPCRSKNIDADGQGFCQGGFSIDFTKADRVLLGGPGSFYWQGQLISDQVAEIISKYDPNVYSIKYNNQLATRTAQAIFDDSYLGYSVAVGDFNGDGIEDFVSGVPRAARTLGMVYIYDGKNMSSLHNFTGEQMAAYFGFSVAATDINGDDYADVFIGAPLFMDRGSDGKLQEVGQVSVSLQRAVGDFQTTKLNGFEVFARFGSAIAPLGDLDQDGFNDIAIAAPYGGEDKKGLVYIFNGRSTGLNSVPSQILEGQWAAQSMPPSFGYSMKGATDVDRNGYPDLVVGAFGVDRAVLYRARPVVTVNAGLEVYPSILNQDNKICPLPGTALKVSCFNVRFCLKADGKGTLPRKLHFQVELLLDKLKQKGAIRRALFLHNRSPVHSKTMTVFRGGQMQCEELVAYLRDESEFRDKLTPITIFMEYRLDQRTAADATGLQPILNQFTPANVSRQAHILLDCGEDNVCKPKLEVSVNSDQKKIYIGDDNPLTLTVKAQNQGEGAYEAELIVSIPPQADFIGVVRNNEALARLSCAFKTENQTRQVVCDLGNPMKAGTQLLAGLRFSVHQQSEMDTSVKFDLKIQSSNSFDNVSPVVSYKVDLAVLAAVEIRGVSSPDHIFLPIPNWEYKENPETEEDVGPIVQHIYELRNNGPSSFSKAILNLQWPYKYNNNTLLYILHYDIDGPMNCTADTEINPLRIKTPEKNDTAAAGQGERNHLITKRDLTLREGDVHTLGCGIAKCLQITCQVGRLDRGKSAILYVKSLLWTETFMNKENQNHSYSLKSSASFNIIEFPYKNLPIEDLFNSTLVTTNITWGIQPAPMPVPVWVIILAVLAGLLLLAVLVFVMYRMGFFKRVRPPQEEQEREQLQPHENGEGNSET
T1 sequence (O54890 26-787): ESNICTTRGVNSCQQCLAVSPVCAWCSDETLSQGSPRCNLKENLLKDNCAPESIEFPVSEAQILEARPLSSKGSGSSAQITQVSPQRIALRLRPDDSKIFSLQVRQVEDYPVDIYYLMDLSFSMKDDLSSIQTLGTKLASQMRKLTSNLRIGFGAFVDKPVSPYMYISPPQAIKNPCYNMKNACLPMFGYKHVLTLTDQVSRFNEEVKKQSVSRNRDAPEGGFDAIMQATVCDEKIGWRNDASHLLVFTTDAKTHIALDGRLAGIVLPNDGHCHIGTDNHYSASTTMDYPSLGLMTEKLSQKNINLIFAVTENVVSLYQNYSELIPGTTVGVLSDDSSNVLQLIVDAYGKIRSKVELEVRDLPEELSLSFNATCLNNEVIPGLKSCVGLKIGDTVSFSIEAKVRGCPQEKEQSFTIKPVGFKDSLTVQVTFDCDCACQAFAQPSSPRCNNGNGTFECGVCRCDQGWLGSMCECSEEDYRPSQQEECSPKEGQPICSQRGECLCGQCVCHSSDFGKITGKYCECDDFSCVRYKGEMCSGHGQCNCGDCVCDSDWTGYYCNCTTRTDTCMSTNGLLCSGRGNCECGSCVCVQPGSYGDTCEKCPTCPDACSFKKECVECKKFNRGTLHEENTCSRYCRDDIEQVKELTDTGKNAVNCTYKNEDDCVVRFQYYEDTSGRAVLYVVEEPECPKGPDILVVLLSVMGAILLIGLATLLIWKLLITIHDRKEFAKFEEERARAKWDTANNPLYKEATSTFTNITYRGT

For the molecule `COc1ccc(C(CC(=O)O)N2CCN(CCCc3ccc4c(n3)NCCC4)C2=O)cn1` (stereo not shown) [MK-0429], the “Effect on cell adhesion, mouse αvβ3” value on CHOK1-mαvβ3 cells was “decreased”. In addition, the “Effect on cell adhesion, mouse αvβ5” value at CHOK1-mαvβ5 cells is listed as “decreased”. The Proteinuria result in experiment [1] is “reduces”. Besides, the Renal fibrosis entry in experiment [1] is listed as “reduces”. Further, the half-maximal inhibitory concentration (IC50) on human αvβ6 (Fig. 3D, assay optimisation, read-out: IC50 human αvβ6 AlphaLISA) worked out at 3.8 nM; on human αvβ6 (Fig. 4B, read-out: IC50 Human integrin AlphaLISA assays: hαvβ6), 0.5 nM; on mouse αvβ1 it was 1.3 nM.

Usually IC50 stands for the point on the concentration scale where inhibition reaches its midpoint.
